# Results published in patent US10208033B2, “β-carboline, dihydro-β-carboline and tetrahydro-β-carboline alkaloid derivatives and preparation methods same and use in aspects of preventing and treating plant viruses, fungicides and insecticides” (NANKAI UNIVERSITY, priority 2013, dated 2019).
# Like-named read-outs stand apart in the source and are kept apart here.
# Columns and labels:
# [1] = test system: Bipolaria maydis; assay: organism not typed; format: cell-based; conditions: for inhibition at 50 mg/kg: read-out: Bactericidal activity (%) Bipolaria maydis; for Bactericidal activity (%) Bipolaria maydis: 50 mg/kg
# [2] = test system: Fusarium graminearumt; assay: microbe, parasite or virus in culture; format: cell-based; conditions: for inhibition of growth at 50 mg/kg: Fusarium, 96 h, read-out: Bactericidal activity (%) Fusarium graminearumt; for Bactericidal activity (%) Fusarium graminearumt: 50 mg/kg
# [3] = test system: corn borers; assay: whole plant or invertebrate; conditions: read-out: Corn borer Mortality (%)
# [4] = test system: Rhizoctonia solani; assay: Fungicidal (bactericidal) activity in vitro, PDA colony diameter; format: cell-based; conditions: 50 mg/kg; for inhibition of growth at 50 mg/kg: Rhizoctonia solani, 96 h
# [5] = test system: potato late blight; assay: microbe, parasite or virus in culture; format: cell-based; conditions: for inhibition of growth at 50 mg/kg: Phytophthora infestans, 96 h, read-out: Bactericidal activity (%) potato late blight
# [6] = test system: Rhizoctonia cereali; assay: Fungicidal (bactericidal) activity in vitro, PDA colony diameter; format: cell-based; conditions: 50 mg/kg; for inhibition of growth at 50 mg/kg: Rhizoctonia, 96 h
# [7] = test system: tobacco mosaic virus (TMV); assay: Anti-TMV in vivo therapeutic effect; set-up: species or system tobacco mosaic virus (host Nicotiana tabacum L.cv.Xanthi NN); conditions: for inhibition at 100 µg/mL / inhibition at 500 µg/mL: Tobacco mosaic virus, read-out: Relative inhibition rate (%) In vivo therapy
# [8] = test system: Botrytis cinerea; assay: Fungicidal (bactericidal) activity in vitro, PDA colony diameter; format: cell-based; conditions: 50 mg/kg; for inhibition of growth at 50 mg/kg: Botrytis cinerea, 96 h
# [9] = test system: Phytophthora capsici; assay: as above; format: cell-based; conditions: 50 mg/kg; for inhibition of growth at 50 mg/kg: Phytophthora capsici, 96 h
# [10] = test system: armyworms, cotton bollworms and corn borers; assay: Insecticidal activity, overall statements on Table 3; format: in vivo; conditions: Table 3, 600 mg/kg
# [11] = test system: Macrophoma kawatsukai; assay: Fungicidal (bactericidal) activity in vitro, PDA colony diameter; format: cell-based; conditions: 50 mg/kg
# [12] = test system: cucumber fusarium wilt; assay: as above; format: cell-based; conditions: 50 mg/kg; for inhibition of growth at 50 mg/kg: Fusarium, 96 h
# [13] = test system: tobacco mosaic virus (TMV); assay: Anti-TMV in vitro effect (half-leaf soaking); format: cell-based, tobacco mosaic virus (host Nicotiana tabacum L.cv.Xanthi NN); conditions: for inhibition at 100 µg/mL / inhibition at 500 µg/mL: Tobacco mosaic virus, read-out: Relative inhibition rate (%) In vitro activity
# [14] = test system: Fusarium fujikuroi; assay: Fungicidal (bactericidal) activity in vitro, PDA colony diameter; format: cell-based; conditions: for inhibition of growth at 50 mg/kg: Fusarium fujikuroi, 96 h
# [15] = test system: Cercospora arachidicola; assay: as above; format: cell-based; conditions: 50 mg/kg; for inhibition of growth at 50 mg/kg: Mycosphaerella arachidis, 96 h
# [16] = test system: armyworms; format: in vivo; conditions: concentration 600 mg/kg
# [17] = test system: mosquito larvae; assay: whole plant or invertebrate; conditions: for mortality at 5 mg/kg / mortality at 10 mg/kg: Culex pipiens, read-out: Mosquito larvae Mortality (%); for mortality at 5 mg/kg / mortality at 10 mg/kg / Mosquito larvae Mortality (%): 24 h; for activity against culex pipiens larvae (in words): at 5 mg/kg
# How it was run: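 Early fourth-instar Culex pipiens pallens larvae from an indoor colony, 10 per beaker, exposed to test compound at 5 ppm in water, diluted from a 1000 ppm acetone mother solution. Blank: water containing 0.5 mL test solvent.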
# [18] = test system: tobacco mosaic virus (TMV); assay: Anti-TMV in vivo protective effect; set-up: species or system tobacco mosaic virus (host Nicotiana tabacum L.cv.Xanthi NN); conditions: for inhibition at 100 µg/mL / inhibition at 500 µg/mL: Tobacco mosaic virus, read-out: Relative inhibition rate (%) In vivo protection
# [19] = test system: cotton bollworms; assay: whole plant or invertebrate; conditions: for mortality at 600 mg/kg: Helicoverpa armigera, in Gossypium hirsutum, read-out: Cotton bollworm Mortality (%); for Cotton bollworm Mortality (%): concentration 600 mg/kg
# Protocol: Experimental method of cotton bollworms: feed and drug mixing method: measure 3 mL of prepared solution and add it to about 27 g of newly prepared feed, thereby obtaining needed concentration through dilution by 10 times.
# [20] = test system: Sclerotinia scleotiorum; assay: Fungicidal (bactericidal) activity in vitro, PDA colony diameter; format: cell-based; conditions: 50 mg/kg; for inhibition of growth at 50 mg/kg: Sclerotinia, 96 h
# [21] = test system: Alternaria solani; assay: as above; format: cell-based; conditions: 50 mg/kg; for inhibition of growth at 50 mg/kg: Alternaria solani, 96 h
# [22] = test system: Colletotrichum orbiculare; assay: as above; format: cell-based; conditions: 50 mg/kg; for inhibition of growth at 50 mg/kg: Colletotrichum orbiculare, 96 h
# [23] = test system: tobacco mosaic virus (TMV); assay: Anti-TMV in vivo inactivation; set-up: species or system tobacco mosaic virus (host Nicotiana tabacum L.cv.Xanthi NN); conditions: for inhibition at 100 µg/mL / inhibition at 500 µg/mL: Tobacco mosaic virus, read-out: Relative inhibition rate (%) In vivo inactivation
# [24] = test system: corn borers; conditions: concentration 600 mg/kg
smiles,measurement,setting,value
"CCCCNC(=O)[C@@H]1Cc2c([nH]c3ccccc23)[C@H](C)N1 [Ib-16, (1S, 3S)—N-butyl-1-methyl-2,3,4,9-tetrahydro-pyridino [3,4-b] indol-3-formamide]",inhibition at 50 mg/kg,[1],18.2%
same,inhibition of growth at 50 mg/kg,[2],14.3%
same,mortality at 600 mg/kg,[3],50%
same,inhibition of growth at 50 mg/kg,[4],46.1%
same,inhibition of growth at 50 mg/kg,[5],22.7%
same,inhibition of growth at 50 mg/kg,[6],57.9%
same,inhibition at 100 µg/mL,[7]; treatment dose 100 μg/mL,21.1%
same,inhibition at 500 µg/mL,[7]; treatment dose 500 μg/mL,44.9%
same,inhibition of growth at 50 mg/kg,[8],18.2%
same,inhibition of growth at 50 mg/kg,[9],18.8%
same,"activity against armyworms, cotton bollworms and corn borers (in words)",[10],broad-spectrum activity
same,inhibition at 50 mg/kg,[11],33.3%
same,inhibition of growth at 50 mg/kg,[12],23.1%
same,inhibition at 100 µg/mL,[13]; treatment dose 100 μg/mL,0%
same,inhibition at 500 µg/mL,[13]; treatment dose 500 μg/mL,38.4%
same,inhibition of growth at 50 mg/kg,[14]; 50 mg/kg,14.3%
same,inhibition of growth at 50 mg/kg,[15],84.6%
same,Armyworm Mortality (%),[16],65%
same,mortality at 5 mg/kg,[17],60%
same,mortality at 10 mg/kg,[17],100%
same,activity against culex pipiens larvae (in words),[17],still show high activity
same,inhibition at 100 µg/mL,[18]; treatment dose 100 μg/mL,15.8%
same,inhibition at 500 µg/mL,[18]; treatment dose 500 μg/mL,42.1%
same,mortality at 600 mg/kg,[19],50%
same,inhibition of growth at 50 mg/kg,[20],0%
same,inhibition of growth at 50 mg/kg,[21],21.1%
same,inhibition of growth at 50 mg/kg,[22],28.6%
same,inhibition at 100 µg/mL,[23]; treatment dose 100 μg/mL,13.5%
same,inhibition at 500 µg/mL,[23]; treatment dose 500 μg/mL,44%
"C[C@@H]1N[C@H](C(=O)NCC2CCCO2)Cc2c1[nH]c1ccccc21 (stereo partly drawn) [Ib-20, (1S, 3S)—N-((tetrahydrofuran-2)-methyl)-1-methyl-2,3,4,9-tetrahydro-pyridino [3,4-b] indol-3-formamide]",Bactericidal activity (%) Bipolaria maydis,[1],16.0%
same,Bactericidal activity (%) Fusarium graminearumt,[2],24.1%
same,Bactericidal activity (%) Rhizoctonia solani,[4],13.2%
same,Bactericidal activity (%) potato late blight,[5],20.0%
same,Bactericidal activity (%) Rhizoctonia cereali,[6],47.1%
same,Relative inhibition rate (%) In vivo therapy,[7]; treatment dose 100 μg/mL,0%
same,Relative inhibition rate (%) In vivo therapy,[7]; treatment dose 500 μg/mL,34.2%
same,Bactericidal activity (%) Botrytis cinerea,[8],36.4%
same,Bactericidal activity (%) Phytophthora capsici,[9],18.4%
same,"activity against armyworms, cotton bollworms and corn borers (in words)",[10],broad-spectrum activity
same,Bactericidal activity (%) Macrophoma kawatsukai,[11],27.8%
same,Bactericidal activity (%) Cucumber fusarium wilt,[12],15.4%
same,Relative inhibition rate (%) In vitro activity,[13]; treatment dose 100 μg/mL,0%
same,Relative inhibition rate (%) In vitro activity,[13]; treatment dose 500 μg/mL,37.5%
same,Bactericidal activity (%) Fusarium fujikuroi,[14]; 50 mg/kg,21.4%
same,Bactericidal activity (%) Cercospora arachidicola,[15],23.5%
same,Armyworm Mortality (%),[16],65%
same,Mosquito larvae Mortality (%),[17]; concentration 5 mg/kg,40%
same,Mosquito larvae Mortality (%),[17]; concentration 10 mg/kg,100%
same,Relative inhibition rate (%) In vivo protection,[18]; treatment dose 100 μg/mL,0%
same,Relative inhibition rate (%) In vivo protection,[18]; treatment dose 500 μg/mL,29.6%
same,Cotton bollworm Mortality (%),[19],30%
same,Corn borer Mortality (%),[24],60%
same,Bactericidal activity (%) Sclerotinia scleotiorum,[20],0.0%
same,Bactericidal activity (%) Alternaria solani,[21],20.0%
same,Bactericidal activity (%) Colletotrichum orbiculare,[22],18.5%
same,Relative inhibition rate (%) In vivo inactivation,[23]; treatment dose 100 μg/mL,9.8%
same,Relative inhibition rate (%) In vivo inactivation,[23]; treatment dose 500 μg/mL,39.1%
"C[C@@H]1N[C@H](C(=O)N/N=C/c2ccccc2)Cc2c1[nH]c1ccccc21 [Ic-1, (1S, 3S)—N′-benzylidene-1-methyl-2,3,4,9-tetrahydropyridino [3,4-b] indol-3-formylhydrazine]",inhibition at 50 mg/kg,[1],60%
same,inhibition of growth at 50 mg/kg,[2],53.8%
same,mortality at 600 mg/kg,[3],60%
same,inhibition of growth at 50 mg/kg,[4],48.6%
same,inhibition of growth at 50 mg/kg,[5],30.4%
same,inhibition of growth at 50 mg/kg,[6],86.5%
same,inhibition at 100 µg/mL,[7]; treatment dose 100 μg/mL,16%
same,inhibition at 500 µg/mL,[7]; treatment dose 500 μg/mL,51.5%
same,inhibition of growth at 50 mg/kg,[8],88.9%
same,inhibition of growth at 50 mg/kg,[9],69.7%
same,"activity against armyworms, cotton bollworms and corn borers (in words)",[10],broad-spectrum activity
same,inhibition at 50 mg/kg,[11],36.4%
same,inhibition of growth at 50 mg/kg,[12],36.4%
same,inhibition at 100 µg/mL,[13]; treatment dose 100 μg/mL,28.4%
same,inhibition at 500 µg/mL,[13]; treatment dose 500 μg/mL,55.8%
same,inhibition of growth at 50 mg/kg,[14]; 50 mg/kg,58.8%
same,inhibition of growth at 50 mg/kg,[15],72.7%
same,Armyworm Mortality (%),[16],75%
same,mortality at 5 mg/kg,[17],80%
same,mortality at 10 mg/kg,[17],100%
same,activity against culex pipiens larvae (in words),[17],still show high activity
same,inhibition at 100 µg/mL,[18]; treatment dose 100 μg/mL,21.8%
same,inhibition at 500 µg/mL,[18]; treatment dose 500 μg/mL,53.2%
same,mortality at 600 mg/kg,[19],55%
same,inhibition of growth at 50 mg/kg,[20],26.9%
same,inhibition of growth at 50 mg/kg,[21],57.1%
same,inhibition of growth at 50 mg/kg,[22],52%
same,inhibition at 100 µg/mL,[23]; treatment dose 100 μg/mL,19.6%
same,inhibition at 500 µg/mL,[23]; treatment dose 500 μg/mL,56.3%
"COc1ccc(C=NNC(=O)[C@@H]2Cc3c([nH]c4ccccc34)[C@H](C)N2)cc1OC [Ic-11, (1S, 3S)—N′-(3,4-dimethoxybenzylidene)-1-methyl-2,3,4,9-tetrahydropyridino [3,4-b] indol-3-formylhydrazine]",Bactericidal activity (%) Bipolaria maydis,[1],52.0%
same,Bactericidal activity (%) Fusarium graminearumt,[2],30.8%
same,Bactericidal activity (%) Rhizoctonia solani,[4],44.4%
same,Bactericidal activity (%) potato late blight,[5],30.4%
same,Bactericidal activity (%) Rhizoctonia cereali,[6],89.2%
same,Relative inhibition rate (%) In vivo therapy,[7]; treatment dose 100 μg/mL,16.2%
same,Relative inhibition rate (%) In vivo therapy,[7]; treatment dose 500 μg/mL,40.5%
same,Bactericidal activity (%) Botrytis cinerea,[8],66.7%
same,Bactericidal activity (%) Phytophthora capsici,[9],84.8%
same,"activity against armyworms, cotton bollworms and corn borers (in words)",[10],broad-spectrum activity
same,Bactericidal activity (%) Macrophoma kawatsukai,[11],66.7%
same,Bactericidal activity (%) Cucumber fusarium wilt,[12],22.7%
same,Relative inhibition rate (%) In vitro activity,[13]; treatment dose 100 μg/mL,7.8%
same,Relative inhibition rate (%) In vitro activity,[13]; treatment dose 500 μg/mL,37.2%
same,Bactericidal activity (%) Fusarium fujikuroi,[14],47.1%
same,Bactericidal activity (%) Cercospora arachidicola,[15],45.5%
same,Armyworm Mortality (%),[16],65%
same,Mosquito larvae Mortality (%),[17]; concentration 5 mg/kg,40%
same,Mosquito larvae Mortality (%),[17]; concentration 10 mg/kg,100%
same,Relative inhibition rate (%) In vivo protection,[18]; treatment dose 100 μg/mL,11%
same,Relative inhibition rate (%) In vivo protection,[18]; treatment dose 500 μg/mL,42.3%
same,Cotton bollworm Mortality (%),[19],40%
same,Corn borer Mortality (%),[24],55%
same,Bactericidal activity (%) Sclerotinia scleotiorum,[20],21.2%
same,Bactericidal activity (%) Alternaria solani,[21],52.4%
same,Bactericidal activity (%) Colletotrichum orbiculare,[22],72.0%
same,Relative inhibition rate (%) In vivo inactivation,[23]; treatment dose 100 μg/mL,20.3%
same,Relative inhibition rate (%) In vivo inactivation,[23]; treatment dose 500 μg/mL,47.1%
